From patent US4889855A, “Heterocyclic compounds and their preparation and use” (priority 1987, dated 1989)

Experiments:
[1] = test system: NMDA (N-methyl-D-aspartate) receptors; details: background; cited from earlier work
[2] = target: quisqualate receptor; assay: 3H-AMPA binding (Test 1); details: displacement of 50% of the specific binding of 3H-AMPA (5 nM), rat cerebral cortical membranes, 0° C., 30 min
Source text: The quisqualate receptor binding activity of the compounds of the present invention can be illustrated by determining their capability for displacing radioactively labelled 2-amino-3hydroxy-5-methyl-4-isoxazolepropionic acid (AMPA) from the quisqualatee type receptors.
The displacement activity of the compounds may be shown by determining the IC50 value which represents the concentration (μg/ml) which causes a displacement of 50% of the specific binding of ^3 H-AMPA.
^3 H-AMPA binding (Test 1)
500 μl of thawed rat cerebral cortical membrane homogenate in Tris-HCl (30 mM), CaCl2 (2.5 mM) and KSCN (100 mM) pH 7.1 were incubated at 0° C. for 30 min. with 25μl ^3 H-AMPA (5 nM final concentration) and the test compound and buffer. Nonspecific binding was determined by incubation with L-glutamic acid (600 μM final concentration). The binding reaction was terminated by adding 5 ml of ice-cold buffer followed by filtration through Whatman GF/C glass fibre filters and 2×5 ml wash with ice-cold buffer. Bound radioactivity was measured by scintillation counting. IC50 was determined by Hill analysis of at least four concentrations of test compound.

[3] = test system: quisqualate receptor; assay: Antagonism of quisqualic acid induced 22Na+-release from striatal slices (Test 2); assay type: cell-based; details: reduces quisqualic acid (2 μg/ml) stimulated 22Na+ efflux by 50%, rat striatal slices
Protocol: The quisqualate antagonism is measured by determining the EC50 value which represents the concentration which reduces the rate of quisqualic acid stimulated sodium efflux by 50%.
Antagonism of quisqualic acid induced ^22 Na^+ -release (Test 2)
Slices from rat striatum were preincubated with ^22 Na^+ for 30 min. After the ^22 Na^+ loading period, the slices were successively and every minute transferred through a series of tubes, each containing 1.5 ml of a non-radioactive physiological solution saturated with O2, with the help of a basket shaped sieve. Quisqualic acid (2 μg/ml) was present in the last 5 tubes and the compound to be tested was present in the same 5 tubes plus 3 tubes before. The amount of radioactivity in each washout tube as well as that left in the slices at the end of the experiment was measured by scintillation counting. EC50 -values were calculated by Hill analysis from at least three different concentrations of test compound as the concentration of test compound which reduces the efflux rate of ^22 Na^+ -ions to 50% of the efflux rate in the absence of test compound.

[4] = test system: NMDA receptor; assay: Inhibition of NMDA stimulated 3H-GABA release from cultured cerebral cortex interneurons (Test 3); assay type: cell-based; details: inhibits 50% of NMDA (3 μg/ml) induced 3H-GABA release, mouse cerebral cortex interneurons
Source text: The NMDA antagonistic properties of the compounds is illustrated by determining their capability to antagonize NMDA stimulated ^3 H-GABA release from cultured mouse cortex neurons.
The NMDA antagonistic activity of the compounds may be shown by determining the IC50 value, which represents the concentration (μg/ml) which inhibits 50% of NMDA induced ^3 H-GABA release.
Inhibition of NMDA stimulated ^3 H-GABA release from cultured mouse cerebral cortex interneurons (Test 3) Release experiments are performed using the model described by Drejer et al. (Life Sci. 38, 2077 (1986)). To cerebral cortex interneurons cultured in petri dishes (30 mm) are added 100 μg/ml 3-vinyl-GABA one […] before the experiment in order to inhibit degradation of GABA in the neurons. 30 min before the experiment 5 μCi ^3 H-GAGA is added to each culture and after this preloading period the cells are washed twice with a HEPES (N-2 Hydroxyethylpiperazine-N'-2-ethanesulfonic acid) buffered saline (HBS) containing 10 mM HEPES, 135 mM NaCl, 5 mM KCl, 0.6 mM MgSO4, 1.0 mM CaCl2 and 6 mM D-glucose; pH 7 and placed in a superfusion system. This system consists of a peristaltic pump continuously delivering thermostated 37° C. superfusion medium from a reservoir to the top of a slightly-tilted petri dish. The cell monolayer at the bottom of the dish is covered with a piece of nylon mesh to facilitate dispersion of medium over the cell layer. The medium is continuously collected from the lower part of the dish and delivered to a fraction collector. Initially, the cells are superfused with HBS for 15 min (flow rate 2 ml/min). Then cells are stimulated for 30 sec every 4 min by changing the superfusion medium from HBS to a corresponding medium containing NMDA and antagonists according to the following scheme: […]
stimulation no. 1: 3 μg/ml NMDA stimulation no. 2: 3 μg/ml NMDA+0.3 μg/ml antagonist stimulation no. 3: 3 μg/ml NMDA+3 μg/ml antagonist
Test substances are dissolved in water or 48% ethanol. The final ethanol concentration in the assay must not exceed 0.1%.
The release of ^3 H-GABA in the presence of NMDA (stimulated relase in cpm) are corrected for the mean basal release (cpm) before and after the stimulation.
The stimulated release in the presence of antagonists are expressed relative to the stimulated release by NMDA alone and the IC50 value for the antagonist is calculated (the concentration (μg/ml) of the test substance which inhibits 50% of the NMDA induced ^3 H-GABA release) either from a dose response curve or from the formula: [formula] where Co is stimulated release in control assays and Cx is the stimulated release in the test assay (the calculation assumes normal mass-action interaction). 25-75% inhibition of the NMDA stimulation must be obtained, before calculation of IC50.

[5] = test system: kainate receptors; details: background; cited from earlier work
[6] = test system: quisqualate receptors; details: background; cited from earlier work

SMILES: O=C(O)[C@@H]1CCCN[C@H]1C(=O)O (relative stereo) [trans-2,3-PDA, trans-2,3-piperidine dicarboxylic acid]
- agonist activity on NMDA receptors [1]: strong to moderate agonist activity

SMILES: O=[N+]([O-])c1cccc2c1c([N+](=O)[O-])cc1nc(O)c(O)nc12 [2,3-Dihydroxy-6,7-dinitrobenzo(f)quinoxaline]
- Test 1 IC50 [2]: 0.06 µg/mL
- Test 2 EC50 [3]: 2.8 µg/mL
- Test 3 IC50 [4]: 0.3 µg/mL

SMILES: O=[N+]([O-])c1cc2nc(O)c(O)nc2c2c([N+](=O)[O-])cccc12 [2,3-Dihydroxy-6,10-dinitrobenzo(f)quinoxaline]
- Test 1 IC50 [2]: 0.85 µg/mL
- Test 3 IC50 [4]: 0.97 µg/mL

SMILES: O=[N+]([O-])c1cc2nc(O)c(O)nc2c2ccccc12 [2,3-Dihydroxy-6-nitrobenzo(f)quinoxaline]
- Test 1 IC50 [2]: 0.69 µg/mL
- Test 2 EC50 [3]: 14 µg/mL
- Test 3 IC50 [4]: 0.39 µg/mL

SMILES: O=[N+]([O-])c1cc2nc(O)c(O)nc2c2cccnc12 [2,3-Dihydroxy-6-nitropyrido(2,3-f)quinoxaline]
- Test 1 IC50 [2]: 0.61 µg/mL
- Test 3 IC50 [4]: 1.5 µg/mL

SMILES: N[C@@H](CCC(=O)NCC(=O)O)C(=O)O [3-glutamyl-glycine]
- antagonism / selectivity at kainate receptors [5]: some selectivity for kainate receptors

SMILES: Nc1cc2nc(O)c(O)nc2c2ccccc12 [6-Amino-2,3-dihydroxybenzo(f)quinoxaline]
- Test 1 IC50 [2]: 1.1 µg/mL
- Test 2 EC50 [3]: 23 µg/mL

SMILES: O=[N+]([O-])c1cccc2c(Br)cc3nc(O)c(O)nc3c12 [6-bromo-2,3-dihydroxy-10-nitrobenzo(f)quinoxaline]
- Test 1 IC50 [2]: 9.2 µg/mL
- Test 3 IC50 [4]: 0.25 µg/mL

SMILES: O=[N+]([O-])c1cc2nc(O)c(O)nc2c2c1CCCC2 [7,8,9,10-Tetrahydro-2,3-dihydroxy-6-nitrobenzo(f)quinoxaline]
- Test 1 IC50 [2]: 0.17 µg/mL
- Test 3 IC50 [4]: 0.092 µg/mL

SMILES: Cc1onc(O)c1CC(N)C(=O)O (stereo not drawn) [AMPA, 2-amino-3-hydroxy-5-methyl-4-isoxazolepropionic acid]
- agonist activity on quisqualate receptors [6]: potent agonists

SMILES: N[C@H](CCCC(=O)O)C(=O)O [D-2-amino-adipic acid]
- antagonist activity on NMDA receptors [1]: moderate antagonist activity

SMILES: N[C@H](CCCCCP(=O)(O)O)C(=O)O [D-APH, 2-amino-7-phosphonoheptanoic acid]
- antagonist activity on NMDA receptors [1]: most potent and selective antagonists

SMILES: N[C@H](CCCP(=O)(O)O)C(=O)O [D-APV, 2-amino-5-phosphono-valeric acid]
- antagonist activity on NMDA receptors [1]: most potent and selective antagonists

SMILES: N[C@H](CCC(=O)O)C(=O)O [D-glutamic acid]
- agonist activity on NMDA receptors [1]: strong to moderate agonist activity

SMILES: CCOC(=O)CCC(N)C(=O)OCC (stereo not drawn) [GDEE, Glutamic acid diethyl esteer]
- antagonist activity at quisqualate receptors [6]: selective but very weak antagonist
- antagonism / selectivity at kainate receptors [5]: relatively insensitive to antagonism

SMILES: N[C@H](C(=O)O)c1cc(=O)[nH]o1 [Ibotenic acid]
- agonist activity on NMDA receptors [1]: strong to moderate agonist activity

SMILES: N[C@@H](CCC(=O)O)C(=O)O [L-glutamic acid]
- agonist activity on quisqualate receptors [6]: potent agonists

SMILES: N[C@@H](CCS(=O)(=O)O)C(=O)O [L-homocysteic acid]
- agonist activity on NMDA receptors [1]: strong to moderate agonist activity

SMILES: N[C@H](CCC[C@H](N)C(=O)O)C(=O)O [diaminopimelic acid]
- antagonist activity on NMDA receptors [1]: moderate antagonist activity

SMILES: N[C@@H](Cn1oc(=O)[nH]c1=O)C(=O)O [quisqualic acid]
- agonist activity on quisqualate receptors [6]: activated selectively
